# Laboratory results from patent publication US12600728B2, “Interleukin-17 inhibitors” (priority 2020, dated 2026).
# Read-outs that look alike come from different tables or passages of the source.
# What was measured:
# [1] = target: biotinylated human IL-17A / AF647-labeled human IL-17RA (Homo sapiens, UniProt Q16552); experiment: Human IL-17A×IL-17RA TR-FRET assay; format: binding
# Procedure, shortened: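 Compounds tested in duplicate at each concentration; neutral controls contain all components with DMSO in place of compound.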
# [2] = target: recombinant human IL-17AA (Homo sapiens, UniProt Q16552); experiment: IL-6 release from NHDF cells, IL-17AA plus TNF-α stimulation; format: cell-based; conditions: 24 hours, IL-6 by ELISA
# Procedure, shortened: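 IL-17-specific IL-6 release from NHDF cells adhered overnight; compounds pre-incubated 30 min at room temperature with human IL-17AA plus TNF-α, then 24 h on cells at 37° C. Final DMSO 0.1% or plasma 20%; IL-6 by ELISA (450 nm). TNF-α-only IL-6 subtracted before IC50 fit.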
# [3] = TR-FRET, biotinylated human IL-17A 5 nM, AF647-labeled human IL-17RA 30 nM, read-out: IL17AA FRET/ IL17Rawt IC50
# [4] = NHDF cells, IL-17AA 30 pM plus TNF-α 6 pM, read-out: IL17AA + TNF IC50 IL-6
# [5] = IL17AA FRET/ IL17Rawt IC50, TR-FRET, 5 nM IL-17A, 30 nM IL-17RA
# [6] = IL17AA + TNF IC50 IL-6, NHDF cells, IL-17AA 30 pM + TNF-α 6 pM
# [7] = TR-FRET, 5 nM IL-17A, 30 nM IL-17RA, read-out: IL17AA FRET/ IL17Rawt IC50
# [8] = NHDF cells, IL-17AA 30 pM + TNF-α 6 pM, read-out: IL17AA + TNF IC50 IL-6
# Sequence of recombinant human IL-17AA (Q16552 24-155): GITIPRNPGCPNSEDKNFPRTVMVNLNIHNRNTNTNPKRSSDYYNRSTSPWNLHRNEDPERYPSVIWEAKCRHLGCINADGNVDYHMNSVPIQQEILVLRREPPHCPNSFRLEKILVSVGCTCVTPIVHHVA
# Sequence of biotinylated human IL-17A / AF647-labeled human IL-17RA (Q16552 24-155): as above
SMILES,"IC50 [1, 3]","IC50 [2, 4]",further results
"Cc1c(-c2ccc(NC(=O)[C@@H](NC(=O)c3ccnn3C)C3CCCCC3)c(F)c2)c(Cl)cc[n+]1[O-] [Example 59, (S)-4-chloro-3-(4-(2-cyclohexyl-2-(1-methyl-1H-pyrazole-5-carboxamido)acetamido)-3-fluorophenyl)-2-methylpyridine 1-oxide]",49 nM,56 nM,
"Cc1c(-c2ccc(NC(=O)[C@@H](NC(=O)c3ccnn3CCN(C)C)C3CCCCC3)cc2F)c(Cl)cc[n+]1[O-] [Example 77, 4-chloro-3-(4-((S)-2-cyclohexyl-2-(1-(2-(dimethylamino)ethyl)-1H-pyrazole-5-carboxamido)acetamido)-2-fluorophenyl)-2-methylpyridine 1-oxide]",436 nM,151 nM,
"Cc1c(-c2ccc(NC(=O)[C@@H](NC(=O)c3ccnn3C)C3CCCCCC3)cc2)c(Cl)cc[n+]1[O-] [Example 47, (S)-4-chloro-3-(4-(2-cycloheptyl-2-(1-methyl-1H-pyrazole-5-carboxamido)acetamido)phenyl)-2-methylpyridine 1-oxide]",17 nM,7 nM,
"CCc1nocc1C(=O)N[C@H](C(=O)Nc1ccc(-c2c(C)cc[n+]([O-])c2C)cc1)[C@@H]1CC=C(F)CC1 [Example 28, 3-(4-((S)-2-(3-ethylisoxazole-4-carboxamido)-2-((S)-4-fluorocyclohex-3-en-1-yl)acetamido)phenyl)-2,4-dimethylpyridine 1-oxide]",20 nM,22 nM,
"Cc1cc[n+]([O-])c(C)c1-c1ccc(NC(=O)[C@@H](NC(=O)c2ccnn2C(C)C)C(c2ccccc2)c2ccccc2)cc1 [Example 68, (S)-3-(4-(2-(1-isopropyl-1H-pyrazole-5-carboxamido)-3,3-diphenylpropanamido)phenyl)-2,4-dimethylpyridine 1-oxide]",76 nM,16 nM,
"Cc1c(-c2ccc(NC(=O)C(NC(=O)c3ccnn3C)[C@H]3C[C@@H]4C[C@@H]4C3)cc2F)c(Cl)cc[n+]1[O-] (stereo partly drawn) [Example 225, 3-(4-(2-((1R,3s,5S)-bicyclo[3.1.0]hexan-3-yl)-2-(1-methyl-1H-pyrazole-5-carboxamido)acetamido)-2-fluorophenyl)-4-chloro-2-methylpyridine 1-oxide]",,,"IC50 [1, 5]: 29 nM; IC50 [2, 6]: 12 nM"
"Cc1cc(-c2ccc(NC(=O)[C@@H](NC(=O)c3ccnn3C)C3CCCCC3)cc2)c(C)[n+]([O-])c1 [Example 113, (S)-3-(4-(2-cyclohexyl-2-(1-methyl-1H-pyrazole-5-carboxamido)acetamido)phenyl)-2,5-dimethylpyridine 1-oxide]",339 nM,38 nM,
"Cc1cc[n+]([O-])c(C)c1-c1ccc(NC(=O)[C@@H](NC(=O)c2ccc3n2CCN(C)C3)C2CCCCCC2)cc1 [Example 120, (S)-3-(4-(2-cycloheptyl-2-(2-methyl-1,2,3,4-tetrahydropyrrolo[1,2-a]pyrazine-6-carboxamido)acetamido)phenyl)-2,4-dimethylpyridine 1-oxide]",94 nM,4 nM,
"CCc1nocc1C(=O)NC(C(=O)Nc1ccc(-c2c(Cl)cc[n+]([O-])c2C)cc1)C1CCC(F)(F)CC1 (stereo not drawn) [Example 51, 4-chloro-3-(4-(2-(4,4-difluorocyclohexyl)-2-(3-ethylisoxazole-4-carboxamido)acetamido)phenyl)-2-methylpyridine 1-oxide]",66 nM,62 nM,
"Cc1c(-c2ccc(NC(=O)[C@@H](NC(=O)c3ccnn3C)C3CCC(F)(F)CC3)cc2F)c(Cl)cc[n+]1[O-] [Example 107, 4-chloro-3-(4-((S)-2-(4,4-difluorocyclohexyl)-2-(1-methyl-1H-pyrazole-5-carboxamido)acetamido)-2-fluorophenyl)-2-methylpyridine 1-oxide]",19 nM,15 nM,
"Cc1c(-c2ccc(NC(=O)[C@@H](NC(=O)c3ccnn3C)C(c3ccccc3)c3ccccc3)cc2)c(Cl)cc[n+]1[O-] [Example 69, (S)-4-chloro-2-methyl-3-(4-(2-(1-methyl-1H-pyrazole-5-carboxamido)-3,3-diphenylpropanamido)phenyl)pyridine 1-oxide]",90 nM,20 nM,
"COCc1nocc1C(=O)N[C@H](C(=O)Nc1ccc(-c2c(C)cc[n+]([O-])c2C)cc1)C1CCC(F)(F)CC1 [Example 33, (S)-3-(4-(2-(4,4-difluorocyclohexyl)-2-(3-(methoxymethyl)isoxazole-4-carboxamido)acetamido)phenyl)-2,4-dimethylpyridine 1-oxide]",1150 nM,88 nM,
"CCc1nocc1C(=O)NC(C(=O)Nc1ccc(-c2c(Cl)cc[n+]([O-])c2C)cc1)C1CCC(C(F)(F)F)CC1 [Example 4, 4-chloro-3-(4-((S)-2-(3-ethylisoxazole-4-carboxamido)-2-((1r,4S)-4-(trifluoromethyl)cyclohexyl)acetamido)phenyl)-2-methylpyridine 1-oxide]",26 nM,12 nM,
"Cc1cc(-c2ccc(NC(=O)[C@@H](NC(=O)c3ccnn3C)C3CCC(F)(F)CC3)cc2)c(C)[n+]([O-])c1 [Example 171, (S)-3-(4-(2-(4,4-difluorocyclohexyl)-2-(1-methyl-1H-pyrazole-5-carboxamido)acetamido)phenyl)-2,5-dimethylpyridine 1-oxide]",,,"IC50 [1, 5]: 465 nM; IC50 [2, 6]: 398 nM"
"CCn1nccc1C(=O)N[C@H](C(=O)Nc1ccc(-c2c(C(F)(F)F)cc[n+]([O-])c2C)cc1)[C@H]1CCCC(F)(F)C1 [Example 10, 3-(4-((S)-2-((S)-3,3-difluorocyclohexyl)-2-(1-ethyl-1H-pyrazole-5-carboxamido)acetamido)phenyl)-2-methyl-4-(trifluoromethyl)pyridine 1-oxide]",93 nM,11 nM,
"Cc1cc[n+]([O-])c(C)c1-c1ccc(NC(=O)[C@@H](NC(=O)c2ccnn2C(C)C)[C@H]2CCCc3ccccc32)cc1 [Example 50, 3-(4-((S)-2-(1-isopropyl-1H-pyrazole-5-carboxamido)-2-((S)-1,2,3,4-tetrahydronaphthalen-1-yl)acetamido)phenyl)-2,4-dimethylpyridine 1-oxide]",23 nM,1 nM,
"Cc1cc[n+]([O-])c(C)c1-c1ccc(NC(=O)[C@@H](NC(=O)c2ccnn2C)[C@H]2CCC[C@@H](F)CC2)cc1 [Example 215, 3-(4-((S)-2-((1S,4R)-4-fluorocycloheptyl)-2-(1-methyl-1H-pyrazole-5-carboxamido)acetamido)phenyl)-2,4-dimethylpyridine 1-oxide]",,,"IC50 [1, 7]: 755 nM; IC50 [2, 8]: 138 nM"
"Cc1cc[n+]([O-])c(C)c1-c1ccc(NC(=O)[C@@H](NC(=O)c2ccnn2C)C2CCCCCC2)nc1 [Example 148, (S)-6′-(2-cycloheptyl-2-(1-methyl-1H-pyrazole-5-carboxamido)acetamido)-2,4-dimethyl-[3,3′-bipyridine] 1-oxide]",,,"IC50 [1, 7]: 125 nM; IC50 [2, 8]: 131 nM"
"CCn1nccc1C(=O)NC(C(=O)Nc1ccc(-c2c(Cl)cc[n+]([O-])c2C)cc1)C1CC2CC2C1 (single isomer, unassigned) [Example 145]",,,"IC50 [1, 7]: 24 nM; IC50 [2, 8]: 23.5 nM"
"CC(=O)N1CCn2c(ccc2C(=O)NC(C(=O)Nc2ccc(-c3c(Cl)cc[n+]([O-])c3C)c(F)c2)[C@H]2C[C@@H]3C[C@@H]3C2)C1 (stereo partly drawn) [Example 194, 3-(4-(2-(2-acetyl-1,2,3,4-tetrahydropyrrolo[1,2-a]pyrazine-6-carboxamido)-2-((1R,3s,5S)-bicyclo[3.1.0]hexan-3-yl)acetamido)-2-fluorophenyl)-4-chloro-2-methylpyridine 1-oxide]",,,"IC50 [1, 7]: 165 nM; IC50 [2, 8]: 47 nM"
"CC(=O)N1CCn2c(ccc2C(=O)N[C@H](C(=O)Nc2ccc(-c3c(Cl)cc[n+]([O-])c3C)c(F)c2)C2CCCCC2)C1 [Example 187, 3-(4-((S)-2-(2-acetyl-1,2,3,4-tetrahydropyrrolo[1,2-a]pyrazine-6-carboxamido)-2-cyclohexylacetamido)-2-fluorophenyl)-4-chloro-2-methylpyridine 1-oxide]",,,"IC50 [1, 7]: 85.4 nM; IC50 [2, 8]: 17 nM"
"Cc1cc[n+]([O-])c(C)c1-c1ccc(NC(=O)[C@@H](NC(=O)c2ccoc2C)C2CCCCC2)cc1 [Example 53, (S)-3-(4-(2-cyclohexyl-2-(2-methylfuran-3-carboxamido)acetamido)phenyl)-2,4-dimethylpyridine 1-oxide]",16 nM,86 nM,
"CC(=O)N1CCn2c(ccc2C(=O)N[C@H](C(=O)Nc2ccc(-c3c(C(F)(F)F)cc[n+]([O-])c3C)cc2)C2CCCCC2)C1 [Example 191, (S)-3-(4-(2-(2-acetyl-1,2,3,4-tetrahydropyrrolo[1,2-a]pyrazine-6-carboxamido)-2-cyclohexylacetamido)phenyl)-2-methyl-4-(trifluoromethyl)pyridine 1-oxide]",,,"IC50 [1, 7]: 128 nM; IC50 [2, 8]: 18.5 nM"
"Cc1cc[n+]([O-])c(C)c1-c1ccc(NC(=O)C(NC(=O)c2ccc3n2CCN(C)C3)C2CCC(C)CC2)cc1 [Example 121, 2,4-dimethyl-3-(4-((S)-2-(2-methyl-1,2,3,4-tetrahydropyrrolo[1,2-a]pyrazine-6-carboxamido)-2-((1r,4S)-4-methylcyclohexyl)acetamido)phenyl)pyridine 1-oxide]",111 nM,17 nM,
